Patent US20250195520A1, “COMBINATION THERAPY USING A PTPN11 INHIBITOR AND AN EGFR INHIBITOR” (NAVIRE PHARMA, INC., priority 2021, published 2025)
Entries after “also recorded” stand apart in the source; their conditions may differ.

Columns and labels:
[1] = system: HCC827 subcutaneous tumors; assay: HCC827 subcutaneous xenograft, tumor volume; format: in vivo, mouse
Method: (§1) Cell lines. The HCC827 cell line was purchased from ATCC. […] The cells were cultured in RPMI-1640 medium (Sigma #RO883)+10% FBS (Sigma #F7524)+2 mM L-glutamine (Sigma #59202C) in 37° C. tissue culture incubator with 5% CO2.
(§2) Test animals. Female athymic nude mice (Envigo UK, Hsd: Athymic Nude-Foxn1nu) were utilized in this experiment. Animals were between 5 and 6 weeks of age at time of xenograft implantation. Animal welfare complies with the UK Animals Scientific Procedures Act 1986 (ASPA) in line with Directive 2010/63/EU of the European Parliament and the Council of 22 Sep. 2010 on the protection of animals used for scientific purposes. All experimental data management and reporting procedures were in strict accordance with applicable Crown Bioscience UK Guidelines and Standard Operating Procedures.
(§3) In vivo modeling, treatment and data analysis. For xenograft studies with the HCC827 and HCC827-ER1 cells, 5 million cells in 200 μL Matrigel (Corning #354234) were injected subcutaneously into the left flank of 5˜6 weeks old female athymic nude mice (Envigo UK). […] Dosing started ˜3 weeks post the subcutaneous implantation of the tumor cells. Dosing volume was 5 mL/kg for each compound, and was adjusted based on individual mouse weight from the daily measurements. Tumor volume was measured twice a week.
(§4) Data were analyzed using Microsoft Excel and GraphPad Prism 8.0. Day 0 was the day before treatment started. Body weight change was calculated based on the following formulas.

[2] = system: HCC827-ER1 subcutaneous tumors; assay: HCC827-ER1 subcutaneous xenograft, tumor volume; format: in vivo, mouse; conditions: for Number of regressions: regressions/animals remaining
Method: as §1, §2, §3, §4

[3] = Plasma exposure by LC-MS/MS in the HCC827 xenograft study; conditions: for Formula (10b) Plasma concentration: 6-8 hours post the final dose of formula (10b) 100 mg/kg QD, mean ± SD
Text: (§5) Blood collection for pharmacokinetic analysis. Blood from live animals for pharmacokinetic (PK) analyses was obtained via the lateral saphenous vein. The mouse was placed in a restraint tube and the hind leg immobilized in the extended position. Resting the foot of the animal on a solid surface, a sterile 25g needle (BD Microlance 3) was inserted into the saphenous vein on the top of the foot. The needle was removed and the blood collected using an EDTA coated capillary blood tube (Microvette CB 300 K2E) by capillary action to a volume of 100 μL. The tube was inverted several times to distribute the EDTA evenly and then centrifuged at 13,000 rpm, 4° C. (VWR Micro Star 17R) for 5 minutes to generate plasma. The supernatant (plasma) was carefully transferred to a 1.5 mL tube and stored at −80° C.
For each analysis, 25 μL of plasma sample was precipitated with 200 μL of acetonitrile containing imipramine (70 ng/mL) as an internal standard.
(§6) The detection conditions of the mass spectrometer were as follows: capillary voltage, 3 kv; cone voltage, 50 ev; collision energy, 25 ev; source temperature, 150° C.; desolvation temperature, 400° C.; desolvation gas flow, 1000 L/hr; cone gas glow, 0.15 mL/min. […] The injection volume was 5 μL. The LC mobile phase A was 0.1% acetic acidwater and B was 0.1% acetic acid-acetonitrile. […] The column temperature was 40° C. […] All data were processed using the MAssLynx v. 4.0 software.

[4] = system: MPAS-plus signature (MAPK pathway) in HCC827-ER1 tumors; assay: RNA sequencing (QuantSeq), MPAS-plus signature in HCC827-ER1 xenograft tumors; format: in vivo, mouse; conditions: for effect on MPAS-plus signature: across timepoints
Method: (§7) In vivo modeling, treatment and data analysis. […] Dosing started ˜3 weeks after the subcutaneous implantation of the tumor cells. Dosing volume was 5 mL/kg for each compound, and was adjusted based on individual mouse weight. Dosing and sample harvesting followed the schedule below. There was a 6-hour interval between the morning dose and the afternoon dose, and tumor/plasma samples were harvested at three timepoints during the 24-hour dosing cycle.

[5] = system: DUSP6 mRNA (MAPK pathway signaling) in HCC4006-OsiR cells; assay: In vitro pharmacodynamic assay, Taqman qRT-PCR of DUSP6 in HCC4006-OsiR cells; format: cell-based, human; conditions: osimertinib 100 nM, formula (10b) 3 μM, 4-hour, 48-hour, 7-day treatment
Method: In vitro pharmacodynamic assay—Taqman qRT-PCR assay. The HCC4006-OsiR cells were plated in 6-well plates (Corning #353046) in 2 mL media and allowed to adhere overnight. […] Four hours later, 4-hour samples were harvested by removing media and lysing cells in each well with 350 μL RLT lysis buffer (Qiagen #79216) with 1% 2-mercaptoethanol. Samples were processed either right way or stored at −20° C. until further analysis. On day 3 and day 8, 48-hour samples and 7-day samples were harvested in the same way. Cells harvested at these two timepoints were switched to fresh media containing compounds 24 hours before sample harvesting.
RNA was extracted from lysates using RNeasy mini RNA isolation kit (Qiagen #74106). Isolated RNA was quantified using Nanodrop 8000 (Thermo Fisher). cDNA was synthesized using high capacity cDNA reverse transcription kit (Thermo Fisher #4368813) with 1 μg total RNA per reaction on a BioRad Tetrad2 thermal cycler (25° C. for 10 min, 37° C. for 120 min, 85° C. for 5 min then hold at 4° C.). The cDNA was further diluted 1:10 using ddH2O. Quantitative real-time PCR was conducted using the following Taqman probes and Taqman universal master mix II without UNG (Thermo Fisher #4440040) on QuantStudio 6 in 384-well format (Thermo Fisher), following vendor's protocols. Each well contains a target probe of interest conjugated to FAM dye (DUSP6, Thermo Fisher Assay ID Hs01044001_m1), and an endogenous control conjugated to VIC dye (human RPLPO, Thermo Fisher #4326314E). Each cDNA was run in three technical replicates.
The ΔΔCt method was used to analyze the qRT-PCR data. […] To calculate fold change, the relative mRNA levels of each sample were normalized to that in DMSO treated samples (fold change for DMSO treated samples was set at “1”). Calculations were done in Microsoft Excel and the graphs were generated in GraphPad Prism 8.0.

[6] = Body weight in the HCC827-ER1 xenograft study; conditions: Day 15
Method: In vivo modeling, treatment and data analysis. […] Dosing started ˜3 weeks post the subcutaneous implantation of the tumor cells. Dosing volume was 5 mL/kg for each compound, and was adjusted based on individual mouse weight from the daily measurements. Tumor volume was measured twice a week.
as §4
BWi and BW0 are the body weight of an individual mouse on measurement day I and on day 0, respectively.

[7] = Plasma concentration by LC-MS/MS in mice bearing HCC827-ER1 tumors (PK/PD study)
Method: as §7
as §5, with “μL.” for “μL. The tube was inverted several times to distribute the EDTA evenly and then centrifuged at 13,000 rpm, 4° C. (VWR Micro Star 17R) for 5 minutes to generate plasma. The supernatant (plasma) was carefully transferred to a 1.5 mL tube and stored at −80° C.”
The tube was inverted several times to distribute the EDTA evenly and then centrifuged at 13,000 rpm, 4° C. (VWR Micro Star 17R) for 5 minutes to generate plasma. The supernatant (plasma) was carefully transferred to a 1.5 mL tube and stored at −80° C.
as §6

[8] = system: DUSP6 mRNA in HCC827-ER1 tumors; assay: In vivo pharmacodynamic assay, Taqman qRT-PCR of DUSP6 in HCC827-ER1 xenograft tumors; design: species or system mouse
Method: as §7

[9] = HCC827 xenograft, formula (10b) 100 mg/kg QD, osimertinib 5 mg/kg QD, PO, 21 days

## C=CC(=O)Nc1cc(Nc2nccc(-c3cn(C)c4ccccc34)n2)c(OC)cc1N(C)CCN(C)C [Osimertinib]
[1]; [9]
  tumor growth (tumor volume): tumor stasis
[1]; mouse, in vivo
  tumor growth (tumor volume): robust tumor regression
[2]; Day 15, HCC827-ER1 xenograft
  Number of regressions: 0/4
[2]; mouse, in vivo
  TGI: 64%
  tumor growth (tumor volume): continued to grow during the treatment period
[3]; 24 hours post the final dose of osimertinib 5 mg/kg QD, HCC827 xenograft model, quantitation limit 2 nM
  osimertinib plasma concentration: BQL
[3]; athymic nude, mouse, in vivo, 5 mg/kg
  concentration at 24 h: < 2 nM
[4]
  effect on MPAS-plus signature: little effect on the MPAS-plus signature
[5]
  DUSP6 mRNA levels: did not suppress DUSP6 mRNA levels
[6]
  Mean body weight change: +1.0%
[7]; 2 hr post osimertinib (8 hr post (10b)), osimertinib 5 mg/kg PO, mean ± SD
  osimertinib plasma concentration: 681 ± 277 nM
[7]; 18 hr post osimertinib (24 hr post (10b)), osimertinib 5 mg/kg PO, mean ± SD
  osimertinib plasma concentration: low nanomolar range
[7]; 24 hr post osimertinib (6 hr post (10b)), osimertinib 5 mg/kg PO, quantitation limit 2 nM
  osimertinib plasma concentration: BQL
[7]; female, athymic nude, mouse, in vivo, 5 mg/kg, osimertinib plasma concentration, 2 hr post osimertinib (8 hr post (10b)), osimertinib 5 mg/kg PO, mean ± SD
  concentration at 2 h: ~700 nM
[7]; female, athymic nude, mouse, in vivo, 5 mg/kg, osimertinib plasma concentration, 18 hr post osimertinib (24 hr post (10b)), osimertinib 5 mg/kg PO, mean ± SD
  concentration at 18 h: 2.1 ± 0.14 nM
[7]; female, athymic nude, mouse, in vivo, 5 mg/kg, osimertinib plasma concentration, 24 hr post osimertinib (6 hr post (10b)), osimertinib 5 mg/kg PO, quantitation limit 2 nM
  concentration at 24 h: < 2 nM

## Cc1c(N2CCC3(CC2)CO[C@@H](C)[C@H]3N)nc(C)n(-c2cccc(Cl)c2Cl)c1=O (atropisomer, axis not shown; (Ra)) [Formula (10b), 6-((3S,4S)-4-amino-3-methyl-2-oxa-8-azaspiro[4.5]decan-8-yl)-3-(Ra)-(2,3-dichlorophenyl)-2,5-dimethylpyrimidin-4 (3H)-one]
[1]; [9]
  tumor growth (tumor volume): suppresses the growth of the HCC827 subcutaneous tumors; also recorded: tumor stasis
[2]; Day 15, HCC827-ER1 xenograft, formula (10b) 100 mg/kg QD, osimertinib 5 mg/kg QD
  TGI: 84%
[2]; Day 15, HCC827-ER1 xenograft
  Number of regressions: 0/4
[2]; HCC827-ER1 xenograft, formula (10b) 100 mg/kg QD, osimertinib 5 mg/kg QD, PO, 21 days
  tumor growth (tumor volume): suppresses the growth of the HCC827-ER1 tumors; also recorded: tumor stasis
[3]; HCC827 xenograft model
  Formula (10b) Plasma concentration: 14.1 ± 5.6 µM
[3]; HCC827 xenograft model, listed as formula (10b)
  Formula (10b) Plasma concentration: 14.1 µM
[4]; 6-hour and 8-hour after formula (10b) administration
  mRNA levels of the MPAS-plus genes: potently suppressed the mRNA levels of the MPAS-plus genes
[4]
  effect on MPAS-plus signature: suppresses the MPAS-plus signature
[8]; 6-hour and 8-hour after formula (10b) dosing, 100 mg/kg
  suppression of DUSP6 mRNA levels: over 90%
[8]; across the three timepoints (best suppression), osimertinib 5 mg/kg, formula (10b) 100 mg/kg
  suppression of DUSP6 mRNA levels: suppresses DUSP6 mRNA levels
[5]
  DUSP6 mRNA levels: reduces the transcript levels of MAPK pathway signature gene DUSP6; also recorded: potently suppressed DUSP6 mRNA levels at all three timepoints tested
[6]
  Mean body weight change: +6.3%
[7]; 6 hours and 8 hours after dosing, 100 mg/kg, monotherapy and in combination with osimertinib
  Formula (10b) Plasma concentration: 30 to 50 µM
[7]; 24 hr post (10b) (18 hr post osimertinib), formula (10b) 100 mg/kg PO, mean ± SD
  10(b) plasma concentration: 1.34 ± 0.24 µM
[7]; female, athymic nude, mouse, plasma, oral, 100 mg/kg, 10(b) plasma concentration, 6 hr post (10b) (24 hr post osimertinib), formula (10b) 100 mg/kg PO, mean ± SD
  concentration at 6 h: 47400 ± 5200 nM
[7]; female, athymic nude, mouse, plasma, oral, 100 mg/kg, 10(b) plasma concentration, 8 hr post (10b) (2 hr post osimertinib), formula (10b) 100 mg/kg PO, mean ± SD
  concentration at 8 h: 35800 ± 9100 nM
[7]; female, athymic nude, mouse, plasma, oral, 100 mg/kg, 10(b) plasma concentration, 24 hr post (10b) (18 hr post osimertinib), formula (10b) 100 mg/kg PO, mean ± SD
  concentration at 24 h: ~1000 nM
